In the NIST ThermoML archive (doi:10.1021/je400055v):
± gives the expanded uncertainty stated by the source.

Test: xn = mol fraction of the nth substance listed
Conditions: Liquid, Vibrating tube method

CCCCCCCCCCC [undecane] + CCCCCCC
Conditions	mass density [kg/m3]
343.03 K, 20000 kPa, x2 = 0.7482	682.7 ± 0.4
343.03 K, 21000 kPa, x2 = 0.7482	683.6 ± 0.4
343.03 K, 22000 kPa, x2 = 0.7482	684.5 ± 0.4
343.03 K, 23000 kPa, x2 = 0.7482	685.4 ± 0.5
343.03 K, 24000 kPa, x2 = 0.7482	686.2 ± 0.5
343.03 K, 25000 kPa, x2 = 0.7482	687.1 ± 0.5
343.06 K, 1010 kPa, x2 = 0.2346	693.6 ± 0.3
343.06 K, 2010 kPa, x2 = 0.2346	694.6 ± 0.3
343.06 K, 3010 kPa, x2 = 0.2346	695.7 ± 0.3
343.06 K, 4011 kPa, x2 = 0.2346	696.7 ± 0.3
343.06 K, 5011 kPa, x2 = 0.2346	697.7 ± 0.3
343.06 K, 6011 kPa, x2 = 0.2346	698.7 ± 0.3
343.06 K, 7012 kPa, x2 = 0.2346	699.7 ± 0.3
343.06 K, 8012 kPa, x2 = 0.2346	700.6 ± 0.3
343.06 K, 9012 kPa, x2 = 0.2346	701.6 ± 0.3
343.06 K, 10013 kPa, x2 = 0.2346	702.5 ± 0.3
343.06 K, 11013 kPa, x2 = 0.2346	703.5 ± 0.3
343.06 K, 12014 kPa, x2 = 0.2346	704.4 ± 0.3
343.06 K, 13014 kPa, x2 = 0.2346	705.3 ± 0.3
343.06 K, 14014 kPa, x2 = 0.2346	706.2 ± 0.4
343.06 K, 15015 kPa, x2 = 0.2346	707 ± 0.4
343.06 K, 16016 kPa, x2 = 0.2346	707.9 ± 0.4
343.06 K, 17016 kPa, x2 = 0.2346	708.8 ± 0.4
343.06 K, 18017 kPa, x2 = 0.2346	709.6 ± 0.4
343.06 K, 19017 kPa, x2 = 0.2346	710.4 ± 0.4
343.06 K, 20018 kPa, x2 = 0.2346	711.3 ± 0.4
343.06 K, 21051 kPa, x2 = 0.2346	712.1 ± 0.4
343.06 K, 22053 kPa, x2 = 0.2346	712.9 ± 0.4
343.06 K, 23055 kPa, x2 = 0.2346	713.7 ± 0.4
343.06 K, 24057 kPa, x2 = 0.2346	714.5 ± 0.4
343.06 K, 25059 kPa, x2 = 0.2346	715.2 ± 0.4
352.9 K, 1001 kPa, x2 = 0.9511	636.9 ± 0.3
352.9 K, 2000 kPa, x2 = 0.9511	638.4 ± 0.3
352.9 K, 3000 kPa, x2 = 0.9511	639.8 ± 0.3
352.9 K, 4000 kPa, x2 = 0.9511	641.1 ± 0.3
352.9 K, 5000 kPa, x2 = 0.9511	642.5 ± 0.3
352.9 K, 6000 kPa, x2 = 0.9511	643.8 ± 0.3
352.9 K, 7000 kPa, x2 = 0.9511	645.1 ± 0.3
352.9 K, 8000 kPa, x2 = 0.9511	646.4 ± 0.3
352.9 K, 9000 kPa, x2 = 0.9511	647.7 ± 0.3
352.9 K, 10000 kPa, x2 = 0.9511	648.9 ± 0.4
352.9 K, 11000 kPa, x2 = 0.9511	650.1 ± 0.4
352.9 K, 12000 kPa, x2 = 0.9511	651.3 ± 0.4
352.9 K, 13000 kPa, x2 = 0.9511	652.5 ± 0.4
352.9 K, 14001 kPa, x2 = 0.9511	653.6 ± 0.4
352.9 K, 15001 kPa, x2 = 0.9511	654.8 ± 0.4
352.9 K, 16000 kPa, x2 = 0.9511	655.9 ± 0.4
352.9 K, 17001 kPa, x2 = 0.9511	657 ± 0.4
352.9 K, 18001 kPa, x2 = 0.9511	658 ± 0.4
352.9 K, 19000 kPa, x2 = 0.9511	659.1 ± 0.4
352.9 K, 20000 kPa, x2 = 0.9511	660.1 ± 0.4
352.9 K, 21001 kPa, x2 = 0.9511	661.2 ± 0.5
352.9 K, 22000 kPa, x2 = 0.9511	662.2 ± 0.5
352.9 K, 23001 kPa, x2 = 0.9511	663.2 ± 0.5
352.9 K, 24000 kPa, x2 = 0.9511	664.1 ± 0.5
352.9 K, 25000 kPa, x2 = 0.9511	665.1 ± 0.5
352.96 K, 1001 kPa, x2 = 0.05	694 ± 0.3
352.96 K, 2001 kPa, x2 = 0.05	695.1 ± 0.3
352.96 K, 2001 kPa, x2 = 0.5063	672.2 ± 0.3
352.96 K, 3000 kPa, x2 = 0.05	696.1 ± 0.3
352.96 K, 3000 kPa, x2 = 0.5063	673.4 ± 0.3
352.96 K, 4000 kPa, x2 = 0.05	697.2 ± 0.3
352.96 K, 4000 kPa, x2 = 0.5063	674.6 ± 0.3
352.96 K, 5000 kPa, x2 = 0.05	698.2 ± 0.3
352.96 K, 5000 kPa, x2 = 0.5063	675.7 ± 0.3
352.96 K, 6000 kPa, x2 = 0.05	699.2 ± 0.3
352.96 K, 6000 kPa, x2 = 0.5063	676.8 ± 0.3
352.96 K, 7000 kPa, x2 = 0.05	700.2 ± 0.3
352.96 K, 7000 kPa, x2 = 0.5063	677.9 ± 0.3
352.96 K, 8001 kPa, x2 = 0.05	701.2 ± 0.3
352.96 K, 8001 kPa, x2 = 0.5063	679 ± 0.3
352.96 K, 9000 kPa, x2 = 0.05	702.2 ± 0.3
352.96 K, 9000 kPa, x2 = 0.5063	680.1 ± 0.3
352.96 K, 10000 kPa, x2 = 0.05	703.2 ± 0.3
352.96 K, 10000 kPa, x2 = 0.5063	681.2 ± 0.3
352.96 K, 11000 kPa, x2 = 0.05	704.1 ± 0.3
352.96 K, 11000 kPa, x2 = 0.5063	682.2 ± 0.3
352.96 K, 12000 kPa, x2 = 0.05	705.1 ± 0.3
352.96 K, 12000 kPa, x2 = 0.5063	683.2 ± 0.4
352.96 K, 13000 kPa, x2 = 0.05	706 ± 0.4
352.96 K, 13000 kPa, x2 = 0.5063	684.2 ± 0.4
352.96 K, 14000 kPa, x2 = 0.05	706.9 ± 0.4
352.96 K, 14000 kPa, x2 = 0.5063	685.2 ± 0.4
352.96 K, 15000 kPa, x2 = 0.05	707.8 ± 0.4
352.96 K, 15000 kPa, x2 = 0.5063	686.2 ± 0.4
352.96 K, 16000 kPa, x2 = 0.05	708.7 ± 0.4
352.96 K, 16000 kPa, x2 = 0.5063	687.2 ± 0.4
352.96 K, 17000 kPa, x2 = 0.05	709.6 ± 0.4
352.96 K, 17001 kPa, x2 = 0.5063	688.1 ± 0.4
352.96 K, 18000 kPa, x2 = 0.05	710.4 ± 0.4
352.96 K, 18000 kPa, x2 = 0.5063	689.1 ± 0.4
352.96 K, 19000 kPa, x2 = 0.05	711.3 ± 0.4
352.96 K, 19000 kPa, x2 = 0.5063	690 ± 0.4
